Experiments:
Format in all cases: in vivo, male Wistar rats
[1] = Body weight over the 35-day TBI study (overt toxicity); settings: 4.5 mg/kg IN twice daily
Text: (§1) Young adult (2-3 months) male Wistar rats were subjected to a moderate traumatic brain injury (TBI) induced by controlled cortical impact (CCI). Animal models of TBI including the CCI model and functional tests have been described in detail in peer reviewed publications (Xiong et al., 2013, Nat Rev Neurosci.; Zhang et al., 2016, J Neurosurg.; Zhang et al., 2016, Neurochem Int.; Zhang et al., 2021, J Neurotrauma). Injury consisted of a single impact at 4.0 m/sec, 2.5 mm deformation to the left parietal cortex. In addition, a group of animals was left healthy/not injured to serve as a healthy control.
(§2) The animals were divided into 3 groups: • 1) TBI+Vehicle (purified water, n=10) • 2) TBI+ALPHA-1062 (4.5 mg/kg) (n=10) • 3) Healthy/not injured and not treated (Sham surgery) (n=10)
(§3) The substance used in this study was ALPHA-1062 at 4.5 mg/kg. As control treatment (vehicle) purified water was administered intranasally (IN). The ALPHA-1062 and the control treatment were initiated 2 hours after injury and continued twice daily (with a 6-hour interval) for 35 consecutive days.

[2] = tested on: NeuN positive cells in DG, CA1, CA3 and cortex; test: NeuN IHC, neuronal cell loss 35 days post-TBI; settings: 4.5 mg/kg IN twice daily; 35 days following TBI
Text: as §1
The substance used in this study was ALPHA-1062 at 4.5 mg/kg. As control treatment (vehicle) purified water was administered intranasally (IN). […]
Histological assessment was performed including quantitative image analysis protocols; followed by statistical analysis of the data. […]
For cell counting and quantitation NeuN+ cells were examined in the ipsilateral cortex, DG, CA1, and CA3 regions of the ipsilateral hippocampus. […] The number of BrdU+ cells (red-fluorophore) and NeuN (green-fluorophore)/BrdU-colabeled cells (yellow after merge) were counted. […] The immune-positive cells were determined and divided by the measured areas and presented as numbers per square mm. […]

[3] = tested on: moderate traumatic brain injury (TBI) induced by controlled cortical impact (CCI); test: Foot-fault test (right forelimb and hindlimb) after TBI
Procedure: FIG. 2: The figure illustrates functional tests that are carried out on healthy (sham surgery) no treatment, vehicle treated and ALPHA-1062 treated rats to assess sensorimotor and cognitive function after TBI. Sensimotor function tests. a) The figure depicts tests to assess the modified neurological severity score (mNSS). […] The animal is required to balance over a grid and the frequency of steps missing the grid are counted. This test assesses the functionality of the injured parietal cortex of the rat's brain. c) The adhesive removal test consists of applying adhesive tape on each forepaw of the animal and measuring the time-to-contact and the time-to-remove them. This behavior requires correct paw and mouth sensitivity (time-to-contact) and correct dexterity (time-to-remove). Cognitive function tests: a) This picture illustrates the Morris water maze that comprises that a rat is placed in a large circular pool (picture on the left) and is required to find an invisible platform that allows it to escape the water by using various visuo-spatial cues. This test is used to study spatial learning and memory and assesses hippocampal and select cortical brain region function. Usually, the path of the rat through the pool is tracked (picture on the right) and the time spend in the proximity of the platform as well as the time needed until the platform is found by the rat are measured. b) For the new/novel object recognition (NOR) test, after a habituation time in the test space (picture on far left) rats are given the opportunity to explore two identical objects (A) for a predetermined period of time (picture in the middle). After a delay, the animals are then presented with two objects to explore, one of which is the same as in the first exploration trial (A), the other a new object (B) (picture on the right). Depending on the length of the delay between the two trials or depending on the extend of cortical damage, the rats will either explore the novel object for a greater time period, indicating memory for the familiar object, or will explore the novel and familiar objects for the same amount of time, indicating a lack of recall or loss of memory for the familiar object presented during the initial trial.
as §1, §2, §3
In addition, neurological functional tests were performed by conducting footfault tests and observations to determine the modified neurological severity score (mNSS) at 1, 7, 14, 21, 28, 35 days after TBI (see Table 1). The mNSS is a composite score assessing motor, sensory, balance, and reflex functions. Details of the tests and scoring system can be found in Table 2.
Animals were monitored as they walked across a mesh for the number of times their right forelimb “missed” proper placement, indicating reduced locomotor skill. This is indicative of trauma in the left side of the brain. The results are depicted in FIG. 3. […]

COc1ccc2c3c1O[C@H]1C[C@@H](OC(=O)c4ccccc4)C=C[C@@]31CCN(C)C2 [ALPHA-1062, (4aS,6R,8aS)-5,6,9,10,11,12-hexahydro-3-methoxy-11-methyl-4aH-[1]benzofuro[3a,3,2-ef][2]benzazepin-6-ol benzoate]
overt toxicity ([1]; 35 days, compared to vehicle animals): did not show overt toxicity | body weight compared to vehicle treated or untreated animals ([1]; each time point D0-D35, P>0.05): no significant alterations in body weight | body weight compared to day zero (D0), days 29-35 ([1]; within group): significant body weight gain | body weight compared to day zero (D0), days 1-7 ([1]; within group, p<0.05): significant body weight loss | neuron numbers (NeuN) in DG, CA1, CA3 and cortex, compared to vehicle [2]: reduced loss of neurons | neuronal cell numbers (NeuN) compared to sham surgery animals [2]: did not differ significantly | foot-fault performance compared to uninjured (sham) animals ([3]; 4.5 mg/kg IN twice daily, by day 28 (D28)): statistically indistinguishable | locomotor skill in fore- and hindlimb foot-fault test, acute ([3]; 4.5 mg/kg IN twice daily, from the first day of treatment, vs vehicle): statistically significant preservation of locomotor skill | recovery of locomotor skill in fore- and hindlimb foot-fault test ([3]; 4.5 mg/kg IN twice daily, throughout the study, vs vehicle): persistently statistically significantly improved recovery | right forelimb foot faults during the walk over a mesh ([3]; 4.5 mg/kg IN, 2 h post injury, twice daily, 35 days, vs vehicle after TBI (FIG. 3)): significantly fewer foot faults | right hindlimb foot faults during the walk over a mesh ([3]; 4.5 mg/kg IN, 2 h post injury, twice daily, 35 days, vs vehicle after TBI (FIG. 4)): significantly fewer foot faults | Footfault, performance over SHAM ([3]; rats after TBI, compared to healthy sham animals): equivalent to | Footfault, performance over VEHICLE ([3]; rats after TBI, compared to vehicle treatment): superior

From patent publication US12589099B2 (priority 2021, dated 2026)
